From patent US10239957B2, “Peptide containing conjugates for dual molecular delivery of oligonucleotides” (Merck Sharp & Dohme Corp., priority 2013, dated 2019) come the findings set out here.

Series [1] is described as follows: Lethality observed on in vivo dosing in mice. More on the design: key: *: lethal at this dose. Here is the method: (§1) Female CD-1 mice (Charles River) were injected in accordance with either a sequential dosing paradigm or a co-dosing paradigm. In the sequential dosing paradigm, the targeted siRNA (SCE) is dosed at t=0 and the targeted peptide is separately dosed up to 2 hr before the SCE (−2 hr) or up to 24 hr after the SCE (+24 hr). In the co-dosing paradigm, the SCE and peptides are co-formulated and dosed together in the same formulation as a single injection at t=0. The mice were dosed either by intravenous (i.v.) or subcutaneous (s.c.) injection of SCE and peptide. For the i.v. doses, the compounds were injected into the tail vein of the mice. For the s.c. doses, the compounds were injected in the subcutaneous space on the back of the mouse between the shoulder blades. At the indicated harvest times (measured from t=0 when the siRNA was dosed, regardless of when the peptide was dosed), the animals were sacrificed and 3 mm liver punches were collected, preserved in RNAlater (Ambion), and stored at 4° C. Separate 5 mm liver punches were collected, placed in 96-well plates, frozen on dry ice, and stored at −80° C. until use.

For series [2], the system named is CTNNB1. Nature of the series: In vivo evaluation in mice: liver mRNA knockdown measurement. The settings on record: mice. The method, boiled down: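 Female CD-1 mice got siRNA (SCE) and targeting peptide i.v. (tail vein) or s.c., co-formulated at t=0 or sequentially (peptide −2 hr to +24 hr vs siRNA). Liver punches taken at set times after siRNA dosing; TaqMan qPCR with PPIB housekeeping, ΔΔCt relative to PBS control.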

For series [3], the system named is CTNNB1. Nature of the series: In vitro DMD assay: mRNA silencing enhancement by peptide conjugates after siRNA-IV treatment. In kind it is cell-based. The settings on record: primary mouse hepatocytes, siRNA-IV 125 nM baseline. In a few lines:
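Primary mouse hepatocytes were pretreated 1 h with siRNA-IV at 125 nM, then exposed ~16 h to peptide conjugates across a dose range, washed and held 24 h more. Target mRNA by RT-qPCR, normalized to PPIB (dddCt), expressed as enhancement over siRNA-IV alone relative to untreated cells.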

The target in the next series is T1, RISC (Mus musculus, UniProt Q8CJG0).
T1 construct: from tissue; host or cells: liver of female CD-1 mice (5 mm liver punches)
T1 sequence (Q8CJG0 whole entry): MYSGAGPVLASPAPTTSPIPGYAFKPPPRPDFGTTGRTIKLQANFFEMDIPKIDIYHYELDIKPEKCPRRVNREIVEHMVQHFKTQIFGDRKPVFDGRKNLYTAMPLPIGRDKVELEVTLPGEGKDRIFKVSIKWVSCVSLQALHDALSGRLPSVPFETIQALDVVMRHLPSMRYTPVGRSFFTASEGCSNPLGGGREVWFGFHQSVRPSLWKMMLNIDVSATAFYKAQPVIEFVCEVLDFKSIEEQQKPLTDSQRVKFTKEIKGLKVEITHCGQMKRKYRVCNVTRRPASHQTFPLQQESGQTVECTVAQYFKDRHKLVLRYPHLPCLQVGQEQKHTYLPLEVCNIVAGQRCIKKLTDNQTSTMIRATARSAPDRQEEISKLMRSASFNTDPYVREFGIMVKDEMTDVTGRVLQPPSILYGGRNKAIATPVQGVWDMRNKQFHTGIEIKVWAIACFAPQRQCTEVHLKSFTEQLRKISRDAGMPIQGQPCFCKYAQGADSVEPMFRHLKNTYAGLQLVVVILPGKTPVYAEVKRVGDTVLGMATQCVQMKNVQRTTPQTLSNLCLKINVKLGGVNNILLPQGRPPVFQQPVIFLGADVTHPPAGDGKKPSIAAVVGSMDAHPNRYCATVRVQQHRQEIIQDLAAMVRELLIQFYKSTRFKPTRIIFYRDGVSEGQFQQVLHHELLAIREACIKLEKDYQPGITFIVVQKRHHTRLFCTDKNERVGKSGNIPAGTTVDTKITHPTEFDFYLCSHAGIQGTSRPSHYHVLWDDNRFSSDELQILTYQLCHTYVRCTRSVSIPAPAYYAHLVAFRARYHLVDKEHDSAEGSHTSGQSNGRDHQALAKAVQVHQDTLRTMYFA
Briefly: Quantitation of siRNA bound to RISC (RISC loading) in liver. In kind it is in vivo, mice. The note with it: siRNA with vinyl phosphonate vs siRNA-I. The method, then: as §1, with “use. […]” for “use.”

Where [4] appears, read: TGN-L-siRNA-III 0.5 mg/kg IV, peptide 25 mg/kg IV 15 min after siRNA.
Setting [5] is: TGN-L-siRNA-III 0.5 mg/kg IV, peptide 2 mg/kg IV 15 min after siRNA.
[6] abbreviates: TGN-L-siRNA-III 0.5 mg/kg IV, peptide 10 mg/kg IV 15 min after siRNA.
[7] abbreviates: TGN-L-siRNA-III 0.25 mg/kg IV, peptide 50 mg/kg IV 15 min after siRNA.

Where no end group is shown, it is not given here. [ ]: non-standard residue; d: D form.

On to “TGN-S-S-SEQ ID NO: 1419 (D) (C[dF][dL][dE][dE][dL][dW]G[dL][dL][dE][dH][dL][dL]; not fully specified (residue 1); listed as Homo sapiens)”, for which the “Lethality mark at targeted peptide dose” value in series [1] (setting [4]) is recorded as 25*. Moreover, the “In vivo mRNA knockdown” value in the series with CTNNB1 [2] (setting [5]) is given as 43%; in the series with CTNNB1 [2] (setting [6]), 78%; with CTNNB1 [2] (setting [4]), 76%.

For the substance “TGN-S-S-SEQ ID NO: 1248 (D) (C[dF][dL][dE][dE][dL][dW][dE][dL][dL][dE][dH][dL][dL]; not fully specified (residue 1); listed as Homo sapiens)”, the “Lethality mark at targeted peptide dose” value in series [1] (setting [4]) is on record as 25*. Moreover, the “In vivo mRNA knockdown” value is listed as 42% in the series on CTNNB1 [2] (setting [5]), 74% in the series with CTNNB1 [2] (setting [6]) and 58% in the series on CTNNB1 [2] (setting [4]).

On to “TGN-S-S-SEQ ID NO: 1654 (D) (CG[dL][dL][dE][dE][dI][dE][dE][dL][dL][dE][dE]G[dL][dE][dN][dL][dI][dD][dW]G[dN][dS]; not fully specified (residue 1); listed as Homo sapiens)”, for which the “Lethality mark at targeted peptide dose” value in series [1] (setting [7]) is given as 50*. The “In vitro dddCt (vs. baseline SCE dose)” value with CTNNB1 [3] (Targeted peptide dose 25 nM) was −0.39; with CTNNB1 [3] (Targeted peptide dose 125 nM) it was −1.05; with CTNNB1 [3] (Targeted peptide dose 3125 nM), −1.48; in the series on CTNNB1 [3] (Targeted peptide dose 15625 nM), −1.61. The “In vivo mRNA knockdown” value was found to be 51% in the series with CTNNB1 [2] (TGN-L-siRNA-III 0.25 mg/kg IV, peptide 2 mg/kg IV 15 min after siRNA); 72% with CTNNB1 [2] (TGN-L-siRNA-III 0.25 mg/kg IV, peptide 10 mg/kg IV 15 min after siRNA); 65% in the series on CTNNB1 [2] (setting [7]).

As for “siRNA-III: CTNNB1 siRNA; passenger SEQ ID NO 1803, guide SEQ ID NO 1806 (vinylPmoeT) (sense CUGUUGGAUUGAUUCGAAAUU; guide TUUCGAAUCAAUCCAACAGUU; vinylphosphonate MOE T; (1)..(1) aminohexyl phosphate inverted abasic cap; (1)..(2) 2′-O-methyl; (3)..(3) 2′-deoxy-2′-fluoro; (4)..(5) 2′-O-methyl; (6)..(8) 2′-deoxy-2′-fluoro; (9)..(10) 2′-O-methyl; (11)..(12) 2′-deoxy-2′-fluoro; (13)..(15) 2′-O-methyl; (16)..(19) 2′-deoxy-2′-fluoro; (20)..(21) 2′-O-methyl; (20)..(21) phosphorothioate internucleotide linkage; (21)..(21) inverted abasic cap; (1)..(1) terminal vinyl phosphate; (1)..(1) 2′-methoxyethoxy; (2)..(21) ribonucleotide unmodified or modified as described for this sequence; (2)..(2) 2′-deoxy-2′-fluoro; (3)..(3) 2′-O-methyl; (4)..(4) …)”, the “Time course of RISC loading (FIG. 5): rate of RISC loading” value with RISC is “faster RISC loading”.
